Legend:
[1] = target: T1, Growth hormone secretagogue receptor type 1 (Homo sapiens, UniProt Q92847); test: Antagonist activity at GHS-R1a (unknown origin) relative to control; type: functional
[2] = Binding affinity at mouse pancreas GHS-R1a assessed as inhibition constant; type: tissue-based
[3] = target: T1, Growth hormone secretagogue receptor type 1; test: Binding affinity at GHS-R1a (unknown origin) assessed as inhibition constant
[4] = target: T1, Growth hormone secretagogue receptor type 1; test: Inverse agonist activity at GHS-R1a (unknown origin) relative to control; type: functional

T1 sequence (Q92847 whole entry): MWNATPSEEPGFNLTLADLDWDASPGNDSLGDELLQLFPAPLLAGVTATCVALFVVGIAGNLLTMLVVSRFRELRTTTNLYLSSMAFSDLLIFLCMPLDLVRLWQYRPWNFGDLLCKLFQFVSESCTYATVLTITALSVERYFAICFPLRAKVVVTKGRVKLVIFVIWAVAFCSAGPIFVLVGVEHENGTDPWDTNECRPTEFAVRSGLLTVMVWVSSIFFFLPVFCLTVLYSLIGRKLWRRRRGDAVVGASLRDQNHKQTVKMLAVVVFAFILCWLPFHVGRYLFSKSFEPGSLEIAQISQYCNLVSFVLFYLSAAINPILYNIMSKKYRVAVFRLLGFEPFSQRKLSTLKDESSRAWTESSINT

Structure (SMILES)	Ki [2] [nM]	Emax [4] [%]	further results
COc1ccc(Cn2c([C@@H](Cc3c[nH]c4ccccc34)NC(=O)CO)nnc2[C@@H](Cc2c[nH]c3ccccc23)NC(=O)[C@H](CC(C)C)NC(=O)[C@H](CC(C)C)NC(C)=O)cc1	–	–	Emax [1]: 0%
Cc1ccccc1-c1nc2ccc(-c3ccc(Cl)cc3)cc2c(=O)n1C[C@@H]1CCCN(CCO[11CH3])C1	4	–	–
C[C@H]1CN(C(=O)c2ccc(-c3ccc(O[11CH3])cc3)cc2)CCN1C(=O)c1ccc2cc[nH]c2c1	7	–	–
COc1ccc(Cn2c([C@@H](Cc3c[nH]c4ccccc34)NC(=O)[C@H](CC(C)C)NC(=O)[C@H](CC(C)C)NC(C)=O)nnc2[C@@H](Cc2c[nH]c3ccccc23)NC(=O)[C@@H](N)CCCCN)cc1	–	-37	Ki [3]: 3 nM
CC(C)C[C@H](NC(=O)[C@H](CC(C)C)NC(=O)[C@@H](Cc1c[nH]c2ccccc12)NC(=O)[C@H](Cc1ccccc1)NC(=O)[C@@H](Cc1c[nH]c2ccccc12)NC(=O)[C@@H](N)CCCCN)C(N)=O	–	-55	–
Cc1ccccc1-c1nc2ccc(-c3ccc(Cl)cc3)cc2c(=O)n1C[C@@H]1CCCN(CC[18F])C1	16	–	–

Reference: ChEMBL document CHEMBL5143586, “Advances in the Development of Nonpeptide Small Molecules Targeting Ghrelin Receptor” (J Med Chem, 2022)
